Source: the supplement of paper PMC10307832

Compound: COc1cccc2c1C(=O)c1c(O)c3c(c(O)c1C2=O)C[C@@](O)(C(=O)CO)C[C@@H]3O[C@H]1C[C@H](N)[C@H](O)[C@H](C)O1 [Doxorubicin] + C[C@@H](Oc1cc(-c2cnn(C3CCNCC3)c2)cnc1N)c1c(Cl)ccc(F)c1Cl [Crizotinib] (partner 1 µM)
Test: relative viability (nuclei count vs DMSO), 5 days (fraction); higher = more cells survive
Conditions: first compound 0.001 µM
Procedure, shortened: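 Five library-drug doses in √10 steps were combined with a fixed anchor-drug dose, or a single drug was given alone, by pin tool to lung cancer cell lines in 1536-well plates the day after seeding. Nuclei were stained and counted after 5 days. Relative viability is the nuclei count in treated wells over that in vehicle wells, taken as the median of duplicate plates.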

| Cell Line | relative viability |
| --- | --- |
| NCI-H1703 | 0.578 |
| NCI-H727 | 0.817 |
| LK-2 | 0.29 |
| NCI-H2126 | 1.04 |
| H3255 | 0.917 |
| COR-L23 | 0.764 |
| COR-L 105 | 0.802 |
| LC-2-ad | 0.265 |
| LU99A | 0.548 |
| NCI-H358 | 0.728 |
| IA-LM | 0.604 |
| A549 | 0.774 |
| NCI-H1299 | 0.952 |
| CAL-12T | 0.671 |
| NCI-H1563 | 0.826 |
| NCI-H1944 | 1.09 |
| NCI-H2170 | 1.25 |
| ABC-1 | 1.09 |
| SK-MES-1 | 1.08 |

Same assay, conditions: first compound 0.003162 µM

| Cell Line | relative viability |
| --- | --- |
| RERF-LC-KJ | 0.846 |
| NCI-H1651 | 0.929 |
| EBC-1 | 0.189 |
| NCI-H1734 | 0.788 |
| NCI-H2009 | 0.991 |
| NCI-H596 | 1.13 |
| SK-LU-1 | 1.03 |
| SW 1573 | 0.794 |
| LCLC-97TM1 | 0.455 |
| NCI-H661 | 1.21 |
| NCI-H2228 | 0.384 |
| EMC-BAC-2 | 0.824 |
| NCI-H2087 | 0.952 |
| Calu-6 | 0.708 |
| HCC-44 | 0.915 |
| NCI-H1703 | 0.789 |
| NCI-H727 | 1.01 |

| Cell Line | relative viability |
| --- | --- |
| LK-2 | 0.223 |
| NCI-H2126 | 1.08 |
| H3255 | 0.88 |
| COR-L23 | 0.66 |
| COR-L 105 | 0.841 |
| LC-2-ad | 0.414 |
| LU99A | 0.522 |
| NCI-H358 | 0.543 |
| IA-LM | 0.914 |
| A549 | 0.634 |
| NCI-H1299 | 0.981 |
| CAL-12T | 0.507 |
| NCI-H1563 | 0.728 |
| NCI-H1944 | 1.16 |
| NCI-H2170 | 1.46 |
| ABC-1 | 1.28 |
| SK-MES-1 | 1.05 |

Same assay, conditions: first compound 0.01 µM

| Cell Line | relative viability |
| --- | --- |
| RERF-LC-KJ | 0.865 |
| NCI-H1651 | 0.855 |
| EBC-1 | 0.179 |
| NCI-H1734 | 0.583 |
| NCI-H2009 | 0.893 |
| NCI-H596 | 0.916 |
| SK-LU-1 | 0.639 |
| SW 1573 | 0.85 |
| LCLC-97TM1 | 0.244 |
| NCI-H661 | 1.08 |
| NCI-H2228 | 0.421 |
| EMC-BAC-2 | 0.748 |
| NCI-H2087 | 0.923 |
| Calu-6 | 0.52 |
| HCC-44 | 0.824 |
| NCI-H1703 | 0.365 |
| NCI-H727 | 0.787 |
| LK-2 | 0.235 |
| NCI-H2126 | 0.961 |
| H3255 | 0.804 |
| COR-L23 | 0.562 |
| COR-L 105 | 0.598 |
| LC-2-ad | 0.459 |
| LU99A | 0.671 |
| NCI-H358 | 0.441 |
